This passage reports Tolerability results from patent publication US20220175766A1, “COMPOSITIONS AND METHODS OF TREATMENT” (GB004, Inc., priority 2019, published 2022).

The data set in a line: Phase 1a multiple ascending dose study (oral solution): safety and tolerability. The class given is in vivo, human. The procedure: The primary objective of the study was to assess the safety and tolerability of ascending doses of Compound 1 after multiple oral doses administration. The safety endpoints included TEAE incidence and severity, clinically significant changes in vital signs, ECG parameters, clinical laboratory tests and physical examination.
Safety and tolerability were assessed by review of vital signs, laboratory results (serum chemistry, hematology and urinalysis), ECG, physical examination findings, AEs, and PK assessment following the Day 1 and Day 7 doses. […] One event of vomiting led to early trial discontinuation in the 240 mg dose group.

In the case of `CC(C)(C)OC(=O)N1CCN(Cc2ccn(Cc3ccc(Cl)cc3)c(=O)c2O)CC1` [Compound 1, tert-butyl 4-((1-(4-chlorobenzyl)-3-hydroxy-2-oxo-1,2-dihydropyridin-4-yl)methyl)piperazine-1-carboxylate], the Tolerability entry (240 mg dose once daily) was “less well tolerated” and the Tolerability entry (doses up to 120 mg once daily for 8 days) is listed as “generally well tolerated”.
